According to patent US5070210A, “Novel ketenimines as intermediates for insecticides” (ICI Americas Inc., priority 1990, dated 1991):

Columns and labels:
Assay type in all cases: in vivo
[1] = test system: Cabbage Looper [Trichoplusia ni (Hubner)]; assay: Cabbage looper insecticidal test; settings: second-instar larvae, percent in solution; 3-5 days
Procedure: (§1) The compounds in Tables 1 and 2 above were tested for insecticidal activity using the following testing procedures. LC50 values, based on the results of these tests and calculated according to dosage-mortality curves, are expressed in Table 3.
Cabbage Looper [Trichoplusia ni (Hubner)]:
Test compounds were diluted in a 50-50 acetone-water solution. Cotyledons of hyzini squash (Calabacita abobrinha), approximately 1×1.5 inches, were immersed in the test solutions for 2-3 seconds and placed on a wire screen to dry. The dried leaves were placed in petri dishes containing a moistened piece of filter paper and infested with 5 second-instar cabbage looper larvae. The dishes were placed in a high humidity chamber. Mortality of the larvae was recorded 3-5 days later. Test concentrations ranged from 0.1% downward. The LC-50 value is expressed below in Table 3 under the heading "CL" in terms of percent of the test compound in solution.

[2] = test system: Housefly [Musca domestica]; assay: Housefly insecticidal test; settings: μg per 25 female flies; mortality after 48 hours
Procedure: as §1
Housefly [Musca domestica]:
Test compounds were diluted in acetone and aliquots pipetted onto the bottom of aluminum dishes. To ensure even spreading of the chemical on the bottom of the dishes, 1 ml of acetone containing 0.01% peanut oil was also added to each dish. After all solvents had evaporated, the dishes were placed in circular cardboard cages containing 25 female houseflies, 1-2 days old. The cages were covered on the bottom with cellophane and on the top with tulle netting, and each contained a sugar-water saturated cotton plug for maintenance of the flies. Mortality was recorded after 48 hours. Test levels ranged from 100 μg/25 female houseflies downward. The LC-50 value is expressed below in Table 3 under the heading "HF", in terms of μg of the test compound per 25 female flies.

[3] = test system: Tobacco Budworm [Heliothis virescens (Fabricius)] eggs; assay: Tobacco budworm egg test; settings: 2-day old eggs, percent in solution
Procedure: as §1
Tobacco Budworm [Heliothis virescens (Fabricius)]:
(b). Eggs: Paper towel patches of 2-day old eggs of the tobacco budworm were dipped in acetone solutions of the test compound and placed in petri dishes containing a portion of larval rearing medium. Treated eggs were maintained at 78° F. and mortality was recorded after all control eggs had hatched and the young larvae were feeding on the media. Test concentrations ranged from 0.1% downward. The LC-50 value is expressed below in Table 3 under the heading "TBW-E" in terms of percent of the test compound in the solution.

Row | Structure (SMILES) | LC50, CL [1] [%] | LC50, HF [2] [µg] | LC50, TBW, E (TBW-E) [3] [%]
1 | CC(C)(C)C(=Nc1ccc(Cl)c([N+](=O)[O-])c1)OCc1cccc(Oc2ccccc2)c1 [Compound 105] | 0.018 | > 100 | > 0.1
2 | CC(C)(C)C(=Nc1ccc(Br)c(Cl)c1)OCc1cccc(Oc2ccccc2)c1 [Compound 106] | 0.014 | > 100 | > 0.1
3 | Cc1ccc(N=C(OCc2cccc(Oc3ccccc3)c2)C(C)(C)C)cc1Cl [Compound 107] | 0.007 | > 100 | > 0.1
4 | Cc1cc(Cl)ccc1N=C(OCc1cccc(Oc2ccccc2)c1)C(C)(C)C [Compound 109] | 0.002 | > 100 | > 0.1
5 | COc1ccc(N=C(OCc2cccc(Oc3ccc(F)cc3)c2)C(C)C)cc1Cl [Compound 110] | 0.007 | 26 | 0.04
6 | CC(C)(Cl)C(=Nc1ccc(Cl)c2ccccc12)OCc1cccc(Oc2ccccc2)c1 [Compound 111] | 0.1 | > 100 | > 0.1
7 | CCC(=Nc1ccc(F)c(Cl)c1)OCc1cccc(Oc2ccc(F)cc2)c1 [Compound 115] | 0.0012 | 10 | 0.075
8 | CC(Br)C(=Nc1ccc(F)c(Cl)c1)OCc1cccc(Oc2ccccc2)c1 (stereo not drawn) [Compound 118] | 0.0013 | 18 | > 0.1
9 | CCCCC(=Nc1ccc(F)c(Cl)c1)OCc1cccc(Oc2ccccc2)c1 [Compound 121] | 0.1 | > 100 | > 0.1
10 | CCCC(=Nc1ccc(F)c(Cl)c1)OCc1cccc(Oc2ccccc2)c1 [Compound 123] | 0.012 | > 100 | > 0.1
11 | CC(C)C(=Nc1cccc(C#N)c1)OCc1cccc(Oc2ccccc2)c1 [Compound 126] | 0.08 | > 100 | > 0.1
12 | Cc1cc(N=C(OCc2cccc(Oc3ccccc3)c2)C(C)C)ccc1Br [Compound 127] | 0.01 | 58 | 0.04
13 | CC(C)C(=Nc1c(Br)cc(F)cc1Br)OCc1cccc(Oc2ccccc2)c1 [Compound 130] | 0.005 | > 100 | > 0.1
14 | Cc1cc(Br)ccc1N=C(OCc1cccc(Oc2ccccc2)c1)C(C)C [Compound 133] | 0.005 | 66 | 0.1
15 | CC(C)(C)C(=Nc1cccc(Br)c1)OCc1cccc(Oc2ccccc2)c1 [Compound 134] | 0.015 | > 100 | > 0.1
16 | CC(C)C(=Nc1cccc(I)c1)OCc1cccc(Oc2ccccc2)c1 [Compound 136] | 0.004 | 9 | 0.08
17 | CSc1ccc(N=C(OCc2cccc(Oc3ccccc3)c2)C(Cl)Cl)cc1 [Compound 141] | < 0.1 | 35 | > 0.1
18 | Cc1cccc(N=C(OCc2cccc(Oc3ccccc3)c2)C(C)C)c1C [Compound 148] | 0.0025 | 18 | 0.025
19 | COc1ccc(C)cc1N=C(OCc1cccc(Oc2ccccc2)c1)C(C)C [Compound 150] | 0.01 | 89 | > 0.1

Row | Structure (SMILES) | LC50, CL [1] [%] | LC50, HF [2] [µg] | LC50, TBW, E (TBW-E) [3] [%]
20 | CCCCc1ccc(N=C(OCc2cccc(Oc3ccccc3)c2)C(C)C)cc1 [Compound 152] | 0.009 | > 100 | > 0.1
21 | CCC(=Nc1ccc(CC)cc1)OCc1cccc(Oc2ccccc2)c1 [Compound 157] | 0.009 | 25 | > 0.1
22 | Cc1ccc(N=C(OCc2cccc(Oc3ccccc3)c2)C(C)C)cc1C [Compound 158] | 0.003 | 9 | 0.1
23 | CCOc1ccc(N=C(OCc2cccc(Oc3ccccc3)c2)C(C)(C)C)cc1 [Compound 164] | 0.005 | > 100 | > 0.1
24 | CC(C)c1ccc(N=C(OCc2cccc(Oc3ccccc3)c2)C(C)(C)C)cc1 [Compound 165] | 0.007 | > 100 | > 0.1
25 | CSc1cccc(N=C(OCc2cccc(Oc3ccccc3)c2)C(C)C)c1 [Compound 166] | 0.009 | 22 | > 0.1
26 | Cc1ccc(N=C(OCc2cccc(Oc3ccccc3)c2)C(C)(C)C)cc1C [Compound 167] | 0.02 | > 100 | > 0.1
27 | CCOC(=O)c1cccc(N=C(OCc2cccc(Oc3ccccc3)c2)C(C)(C)C)c1 [Compound 168] | 0.1 | > 100 | > 0.1
28 | COc1ccc(N=C(OCc2cccc(Oc3ccccc3)c2)C(C)C)cc1OC [Compound 169] | 0.009 | 10 | > 0.1
29 | CC(=O)c1cccc(N=C(OCc2cccc(Oc3ccccc3)c2)C(C)C)c1 [Compound 170] | 0.1 | 37 | > 0.1
30 | CCOc1cccc(N=C(OCc2cccc(Oc3ccccc3)c2)C(C)C)c1 [Compound 171] | 0.01 | 80 | > 0.1
31 | CC(C)(C)C(=Nc1cccc([N+](=O)[O-])c1)OCc1cccc(Oc2ccccc2)c1 [Compound 175] | 0.018 | > 100 | > 0.1
32 | CC(C)C(=Nc1ccc2c(c1)OC(C)(C)O2)OCc1cccc(Oc2ccccc2)c1 [Compound 182] | 0.0006 | 28 | 0.04
33 | CC(C)C(=Nc1ccc2c(c1)OCO2)OCc1cccc(Oc2ccccc2F)c1 [Compound 183] | 0.00075 | 10 | 0.075
34 | CCCC(=Nc1ccc(OC)cc1)OCc1cccc(Oc2ccccc2)c1 [Compound 184] | 0.024 | 61 | > 0.1
35 | CCC(C)C(=Nc1ccc2c(c1)OCO2)OCc1cccc(Oc2ccccc2)c1 (stereo not drawn) [Compound 185] | 0.0006 | 13 | 0.075
36 | CC(C)C(=Nc1ccc2c(c1)OCO2)OCc1cccc(Oc2ccccc2F)c1 [Compound 190] | 0.0004 | 7.5 | 0.023
37 | CC(C)C(=Nc1cccc(C(F)(F)F)c1)OCc1cccc(Oc2cccc(F)c2)c1 [Compound 192] | 0.0012 | 25 | 0.07
